Numbered stars: 1 amine (or outer) side, 2 acyl side, 3 side chain; on linkers, the order of the positions; unused ones are H or OH. Bridge positions count the residues as written; N and C are the ends. Square brackets hold non-standard residues; d marks the D form. Peptide text beside a SMILES is read from it. X1 = O=C([C@@]1(N[*:1])CCc2ccccc2C1)[*:2]; Atc(2S) = N[C@@]1(C(=O)O)CCc2ccccc2C1; Mpa = O=C(O)CCS; Sar = CNCC(=O)O
Target: Oxytocin receptor (Cavia porcellus)
Assay: Compound was evaluated for its dissociation constant (Kd) to guinea pig myometrial Oxytocin receptor

Structure (SMILES)	Kd [nM]
CC[C@H](C)[C@@H]1NC(=O)[C@@]2(CCc3ccccc3C2)NC(=O)CCSSC[C@@H](C(=O)N(C)CC(=O)N[C@@H](CCCN=C(N)N)C(=O)NCC(N)=O)NC(=O)[C@H](CC(N)=O)NC(=O)[C@H](CCC(N)=O)NC1=O ([Mpa][Atc(2S)]IQNC[Sar]RG-NH2; disulfide 1-6)	370
CC[C@H](C)[C@@H]1NC(=O)[C@]2(CCc3ccccc3C2)NC(=O)CCSSC[C@@H](C(=O)N(C)CC(=O)N[C@@H](CCCN=C(N)N)C(=O)NCC(N)=O)NC(=O)[C@H](CC(N)=O)NC(=O)[C@H](CCC(N)=O)NC1=O ([Mpa][X1]IQNC[Sar]RG-NH2; disulfide 1-6)	1920
CC[C@H](C)[C@@H]1NC(=O)[C@@H](Cc2c[nH]c3ccccc23)NC(=O)CCSSC[C@@H](C(=O)N(C)CC(=O)N[C@@H](CCCNC(=N)N)C(=O)NCC(N)=O)NC(=O)[C@H](CC(N)=O)NC(=O)[C@H](CCC(N)=O)NC1=O [Mpa-D-Trp-lle-Gln-Asn-Cys-Sar-Arg-Gly-NH2]	38
